Assay results as given in paper PMC7698453, “4-Benzyloxylonchocarpin and Muracatanes A-C from Ranunculus muricatus L. and Their Biological Effects” (Biomolecules, 2020).
Counter-ions that a name gives are not always drawn. Like-named read-outs stand apart in the source and are kept apart here.

Tests used:
[1] = Sulforhodamine B cytotoxicity assay, FaDu; format: cell-based; details: human, FaDu pharynx carcinoma cells; SRB assay, tested 1-30 µM
Description: (§1) The cytotoxicity of the natural products was screened by using the sulforhodamine-B (Kiton Red S, ABCR, Karlsruhe, Germany) in micro culture colorimetric assay using 96-well plates with the seeding of the cells on day 0 applying appropriate cell densities to prevent confluence of the cells during the period of the experiment. On day 1, the cells were treated with six different concentrations (1, 3, 7, 12, 20 and 30 µM); thereby, the final concentration of DMSO was always ≤ 0.5%, generally regarded as non-toxic to the cells. On day 4, the supernatant medium was discarded; the cells were fixed with 10 % trichloroacetic acid. After another day at 4 °C, the cells were washed in a strip washer and dyed with the SRB solution (100 µL, 0.4% in 1% acetic acid) for about 20 min and this was followed by washing of the plates (four times, 1% acetic acid) and air-drying overnight. Furthermore, tris base solution (200 µL, 10 mM) was added to each well and absorbance was measured at λ = 570 nm employing a reader (96 wells, Tecan Spectra, Crailsheim, Germany).

[2] = Sulforhodamine B cytotoxicity assay, HT29; format: cell-based; details: human, HT29 colorectal adenocarcinoma cells; SRB assay, tested 1-30 µM
Description: as §1

[3] = Sulforhodamine B cytotoxicity assay, A2780; format: cell-based; details: human, A2780 ovarian carcinoma cells; SRB assay, tested 1-30 µM
Description: as §1

[4] = Sulforhodamine B cytotoxicity assay, MCF7; format: cell-based; details: human, MCF7 breast cancer cells; SRB assay, tested 1-30 µM
Description: as §1

[5] = Sulforhodamine B cytotoxicity assay, SW1736; format: cell-based; details: human, SW1736 thyroid carcinoma cells; SRB assay, tested 1-30 µM
Description: as §1

[6] = target: T1, α-Glucosidase type I (EC 3.2.1.20 from Saccharomyces cerevisiae) (Saccharomyces cerevisiae, UniProt P53341); test: α-Glucosidase assay (p-NPG substrate); format: biochemical; details: for inhibition at 10 µM: at concentration of 10 µM
T1 construct: purchased Sigma-Aldrich (St. Louis, MO, USA)
Description: The α-glucosidase assay was applied to pure natural product 3 according to the protocol described by Schmidt and co-workers. In short, the assays were performed in 96-well microplates using a Multiskan FC microplate photometer (Thermo Fisher Scientific, Waltham, MA, USA) controlled by SkanIt 2.5.1 software (Thermo Fisher Scientific, Waltham, MA, USA) with final volumes of 200 µL in each well. A phosphate buffer (100 mM) was prepared by dissolving 2.65 g sodium dihydrogen phosphate dihydrate, 4.70 g disodium hydrogen phosphate, and 0.10 g sodium azide in 500 mL Milli-Q water and adjusting the pH to 7.5. […] The microplate was shaken for 2 min, and incubated for 10 min at 28 °C. Then, 20 µL of p-NPG substrate (10 mM, 60.2 mg in 20 mL buffer) was added to each well to initiate the reaction. The enzyme activity (expressed as cleavage rate ΔAU/s) was determined by measuring the absorbance at 405 nm every 30 s for 35 min, and percentage inhibition was calculated according to the equation: Percent inhibition=Slope(blank)−Slope(sample)/Slope(blank)× 100% where slopeblank is the enzyme activity of the wells containing buffer, enzyme, and substrate and slopesample is the enzyme activity in the wells containing buffer, enzyme, substrate, and sample.

[7] = target: T2, BChE (from equine serum) (Equus caballus, UniProt P81908); test: Cholinesterase assay (Ellman's method), BChE; format: biochemical; details: for inhibition at 10 µM: read-out: BChE % Inhibition
T2 construct: BChE (from equine serum); purchased Merck (Darmstadt, Germany); host or cells: equine serum
Description: (§2) A solution of tris(hydroxymethyl)-aminomethane (606 mg) in twice-distilled water (100 mL) was adjusted to a pH of 8.0 ± 0.1 with HCl to get a 50 mM Tris-HCl buffer solution. The AChE solution holding 2.005 U/mL was prepared by dissolving the enzyme (271 U/mg, 0.037 mg) in freshly prepared buffer pH 8.0 (5 mL) comprising extra NaN3 (0.98 mg), and for the BChE solution with the concentration of 2.040 U/mL: the enzyme (7.54 U/mg, 1.353 mg) was dissolved in freshly prepared buffer pH 8.0 (5 mL) comprising NaN3 (0.98 mg). The DTNB solution with the concentration of 3 mM was prepared by dissolving DTNB (23.8 mg) in buffer pH 8.0 (20 mL) and this was followed by the addition of MgCl2 (38.0 mg) and NaCl (116.8 mg). The ATChI solution with the concentration of 15 mM was prepared by dissolving ATChI (43.4 mg) in twice-distilled water (10 mL). Furthermore, all solutions were stored in Eppendorf tubes in the refrigerator or freezer. […] The final concentrations for the enzymatic assays were obtained by diluting the stock solution with twice-distilled water.
(§3) A mixture of the tested natural product solutions (25 µL, 3 different concentrations and one blank), DTNB solution (125 μL) and enzyme solution (25 μL, AChE or BChE) was incubated at 30 °C for 20 min in 96-well microplates followed by the addition of the substrate (25 μL, at 4 different concentrations). The final substrate concentrations were as follows: [ATChI] = 0.9375 mM, 0.625 mM, […], and 0.1875 mM. Moreover, the absorbance (λ = 415 nm) was measured at 30 °C for 30 min at 1 min intervals. […] Ki and Ki’ were deduced from Lineweaver–Burk, Dixon, and Cornish–Bowden plots as well as the mode of inhibtion. The relative inhibition was deduced as the quotient of the slopes (compound divided by blank) of the linear ranges. The concentration of each compound was 10 µM while the concentration was ATChI = 0.625 mM.

[8] = target: T3, AChE (from Electrophorus electricus) (Electrophorus electricus, UniProt O42275); test: biochemical; format: biochemical; details: for inhibition at 10 µM: at concentration of 10 µM, ATChI 0.625 mM
T3 construct: purchased Merck (Darmstadt, Germany)
Description: as §2, §3

[9] = Ki' (mixed-mode inhibition), from Lineweaver–Burk, Dixon and Cornish–Bowden plots

T2 sequence (P81908 whole entry): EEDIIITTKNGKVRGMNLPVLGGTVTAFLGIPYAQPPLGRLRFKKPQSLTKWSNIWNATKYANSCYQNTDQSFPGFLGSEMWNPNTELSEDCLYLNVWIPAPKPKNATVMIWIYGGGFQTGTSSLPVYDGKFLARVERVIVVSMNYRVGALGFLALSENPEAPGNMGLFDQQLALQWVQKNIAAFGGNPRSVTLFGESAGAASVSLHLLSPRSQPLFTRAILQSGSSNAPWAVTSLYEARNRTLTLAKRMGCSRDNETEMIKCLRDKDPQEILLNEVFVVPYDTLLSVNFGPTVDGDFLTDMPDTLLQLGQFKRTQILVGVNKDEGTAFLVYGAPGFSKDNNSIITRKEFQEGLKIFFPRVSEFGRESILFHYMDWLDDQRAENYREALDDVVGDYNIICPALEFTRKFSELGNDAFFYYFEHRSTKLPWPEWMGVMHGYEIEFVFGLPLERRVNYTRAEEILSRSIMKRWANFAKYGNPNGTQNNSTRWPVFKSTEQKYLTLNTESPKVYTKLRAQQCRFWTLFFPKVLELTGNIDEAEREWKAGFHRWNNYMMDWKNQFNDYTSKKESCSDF
T1 sequence (P53341 whole entry): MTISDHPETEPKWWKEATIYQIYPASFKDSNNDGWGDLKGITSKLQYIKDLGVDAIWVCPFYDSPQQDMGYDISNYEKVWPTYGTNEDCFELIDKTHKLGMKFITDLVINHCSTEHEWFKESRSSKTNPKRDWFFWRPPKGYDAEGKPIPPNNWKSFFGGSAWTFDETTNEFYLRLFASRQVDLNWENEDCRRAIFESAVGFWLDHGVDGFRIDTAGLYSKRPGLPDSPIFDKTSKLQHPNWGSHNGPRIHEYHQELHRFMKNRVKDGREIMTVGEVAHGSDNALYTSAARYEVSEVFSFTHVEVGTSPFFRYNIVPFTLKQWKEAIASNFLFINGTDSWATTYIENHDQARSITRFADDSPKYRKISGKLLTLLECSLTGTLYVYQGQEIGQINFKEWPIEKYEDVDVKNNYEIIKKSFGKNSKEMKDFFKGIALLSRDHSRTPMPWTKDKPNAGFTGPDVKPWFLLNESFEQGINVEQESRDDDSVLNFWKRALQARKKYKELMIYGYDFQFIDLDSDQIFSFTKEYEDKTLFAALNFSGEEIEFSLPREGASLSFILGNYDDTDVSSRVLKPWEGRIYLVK
T3 sequence (O42275 24-633): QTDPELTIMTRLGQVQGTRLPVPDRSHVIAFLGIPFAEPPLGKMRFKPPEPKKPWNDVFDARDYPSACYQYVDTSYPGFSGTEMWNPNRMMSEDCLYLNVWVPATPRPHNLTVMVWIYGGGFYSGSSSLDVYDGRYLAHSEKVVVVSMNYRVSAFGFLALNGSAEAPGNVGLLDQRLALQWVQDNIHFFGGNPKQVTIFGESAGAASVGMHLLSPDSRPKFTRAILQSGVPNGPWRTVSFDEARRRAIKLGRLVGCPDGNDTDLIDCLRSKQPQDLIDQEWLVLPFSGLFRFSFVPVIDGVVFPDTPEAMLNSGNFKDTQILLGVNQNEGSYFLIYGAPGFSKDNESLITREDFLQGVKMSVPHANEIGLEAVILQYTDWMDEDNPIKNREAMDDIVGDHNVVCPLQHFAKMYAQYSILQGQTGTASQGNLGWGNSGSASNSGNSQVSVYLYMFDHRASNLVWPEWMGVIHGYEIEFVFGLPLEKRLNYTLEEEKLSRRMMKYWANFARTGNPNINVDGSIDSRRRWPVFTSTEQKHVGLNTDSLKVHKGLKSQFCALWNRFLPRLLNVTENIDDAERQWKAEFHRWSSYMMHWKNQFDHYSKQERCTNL

Compound | IC50 at 3 days [1] [µM] | IC50 at 3 days [2] [µM] | IC50 at 3 days [3] [µM] | IC50 at 3 days [4] [µM] | IC50 at 3 days [5] [µM] | inhibition at 10 µM [6] [%] | inhibition at 10 µM ([7]; at concentration of 10 µM) [%] | inhibition at 10 µM [8] [%] | IC50 [6] [µM] | inhibition at 10 µM [7] [%] | mode of inhibition of BChE ([7]; results not shown) | mode of inhibition of AChE [8] | AChE Ki' [8, 9] [µM] | Ki [8, 9] [µM] | Ki ([8]; from Lineweaver–Burk, Dixon and Cornish–Bowden plots) [µM]
COC(=O)C(Cc1ccc2c(c1OC)C(=O)c1cccc(OC)c1C2=O)C(=O)OC [Compound 2, dimethyl 2-((1,5-dimethoxy-9,10-dioxo-9,10-dihydroanthracen-2-yl)methyl)malonate] | > 30 | > 30 | > 30 | > 30 | > 30 | 13.4 |  |  |  |  |  |  |  |  | 
COc1ccc(/C=C/C(=O)c2ccc3c(c2O)C=CC(C)(C)O3)cc1 [Compound 5, 4-methoxylonchocarpin] | > 30 | 20.2 | 25.4 | 23.7 | 26.2 | 36.1 | 8.7 | 49.9 |  |  |  |  |  |  | 
O=C1c2ccc(O)cc2C(=O)c2c(O)ccc(O)c21 [Compound 3, 1,4,6-trihydroxyanthracene-9,10-dione] | > 30 | > 30 | > 30 | > 30 | > 30 | 80.4 |  |  | 164 ± 83 |  |  |  |  |  | 
COc1ccc2c3c1O[C@H]1C[C@@H](O)C=C[C@@]31CCN(C)C2 [GH, Galantamine hydrobromide, reference compound] |  |  |  |  |  |  |  |  |  | 54.8 | competitive inhibitor |  |  |  | 
CC1(C)C=Cc2c(ccc(C(=O)/C=C/c3ccc(OCc4ccccc4)cc3)c2O)O1 [Compound 1, (E)-3-(4-(benzyloxy)phenyl)-1-(5-hydroxy-2,2-dimethyl-2H-chromen-6-yl)prop-2-en-1-one] | > 30 | > 30 | > 30 | > 30 | > 30 |  | 27.3 | 97.4 |  |  |  | mixed-mode type inhibitor | 3.54 ± 0.24 | 3.54 | 5.39 ± 0.51
